Assay results taken from patent US20250011365A1, “ECHINOCANDIN-BASED DRUG, AND PREPARATION METHOD THEREFOR AND USE THEREOF” (Shenzhen Sungening Biological Co., Ltd, priority 2023, published 2025).
Numbered stars: 1 amine (or outer) side, 2 acyl side, 3 side chain; on linkers, the order of the positions; unused ones are H or OH. Bridge positions count the residues as written; N and C are the ends. Square brackets hold non-standard residues; d marks the D form. Peptide text beside a SMILES is read from it. * marks the point of attachment. Orn(4R-OH,5R-OCH2CH2NMe3+) = C[N+](C)(C)CCO[C@@H](N[*:3])[C@H](O)C[C@H](N[*:1])C(=O)[*:2]; pTerphenylCO(4''-OnC5H11) = CCCCCOc1ccc(-c2ccc(-c3ccc(C(=O)*)cc3)cc2)cc1; hTyr(3S-OH,4S-OH) = N[C@H](C(=O)O)[C@H](O)[C@@H](O)c1ccc(O)cc1; X4 = CCCCCOc1c(F)cc(C#Cc2ccc3cc(C(=O)*)ccc3c2)cc1F; Pro(3S-OH,4S-Me) = C[C@H]1CN[C@H](C(=O)O)[C@H]1O; X3 = CCCCCOc1ccc(C#Cc2ccc3cc(C(=O)*)ccc3c2)cc1F; Hyp = O=C(O)[C@@H]1C[C@@H](O)CN1

Tests used:
[1] = system: Pichia guilliermondii ATCC 6260; assay: MIC assay, yeast-type fungi (CLSI M27-A3); assay type: cell-based; settings: Meyerozyma guilliermondii, ATCC6260, 24 h, 35° C.
Description: (§1) After gradient dilution of test compounds, an MIC assay was performed on a Candida standard strain, and an MEC assay was performed on an Aspergillus standard strain. […] A cryopreserved strain was passaged at least 2 times. A single colony was picked and resuspended in a physiological saline or sterile water tube, and the tube was subjected to vortex shaking. The Candida suspension was adjusted to 0.5 McF (1×10^6-5×10^6 CFU/mL) at a wavelength of 530 nm by using a spectrophotometer. After being diluted 50 times with physiological saline, the Candida suspension was diluted 20 times with 1×RPMI 1640 broth (1×10^3-5×10^3 CFU/mL). 10 μL of the diluted Candida suspension was coated on an SDA plate for colony counting, with a range of about 10-50 single colonies. After a prepared drug sensitive plate was completely dissolved at room temperature, the Candida suspension was added to the 96-well plate by using a multi-channel pipettor at 100 μL/well. At this time, the concentration of Candida in each well should be 0.5×10^3-2.5×10^3 CFU/mL. A yeast-type fungus assay plate was placed in an incubator, and incubated for 24 h at 35° C. and 85% humidity, and then the MIC values were read. For echinocandin-based drugs, Aspergillus was incubated for 21-26 h at 28° C., and then the MEC results were read. Yeast-type fungi: A 96-well plate was attached with a disposable parafilm, shaken for uniformly mixing, and observed with naked eyes by using a plate reader microscope. […] Pictures were taken and saved by using an automated plate reader.

[2] = system: Candida albicans ATCC 18804; assay: MIC assay, Candida standard strain (CLSI M27-A3); assay type: cell-based; settings: ATCC18804, 24 h, 35° C.
Description: as §1

[3] = system: Candida albicans ATCC 76485; assay: MIC assay, Candida standard strain (CLSI M27-A3); assay type: cell-based; settings: ATCC76485, 24 h, 35° C.
Description: as §1

[4] = system: Candida albicans ATCC 90028; assay: MIC assay, Candida standard strain (CLSI M27-A3); assay type: cell-based; settings: ATCC90028, 24 h, 35° C., >50% growth inhibition
Description: as §1

[5] = system: Candida albicans ATCC MYA-427; assay: MIC assay, Candida standard strain (CLSI M27-A3); assay type: cell-based; settings: 24 h, 35° C.
Description: as §1

[6] = system: C. parapsilosis ATCC 22019; assay: MIC assay, Candida standard strain (CLSI M27-A3); assay type: cell-based; settings: Lodderomyces parapsilosis, ATCC22019; C. parapsilosis ATCC 22019 (quality-control strain); 24 h, 35° C.
Description: as §1

C. tropicalis ATCC 750 = assay: MIC assay, Candida standard strain (CLSI M27-A3); assay type: cell-based; settings: ATCC750, 24 h, 35° C.
Description: as §1

[7] = system: Candida albicans ATCC MYA-1023; assay: MIC assay, Candida standard strain (CLSI M27-A3); assay type: cell-based; settings: 24 h, 35° C.
Description: as §1

[8] = system: Candida albicans CICC 1943; assay: MIC assay, Candida standard strain (CLSI M27-A3); assay type: cell-based; settings: CICC1943, 24 h, 35° C.
Description: as §1

[9] = system: Candida albicans ATCC MYA-4788; assay: MIC assay, Candida standard strain (CLSI M27-A3); assay type: cell-based; settings: 24 h, 35° C.
Description: as §1

[10] = system: Candida albicans ATCC 14053; assay: MIC assay, Candida standard strain (CLSI M27-A3); assay type: cell-based; settings: ATCC14053, 24 h, 35° C.
Description: as §1

C. krusei ATCC 6258 = assay: MIC assay, Candida standard strain (CLSI M27-A3); assay type: cell-based; settings: Pichia kudriavzevii, ATCC6258; C. krusei ATCC 6258 (quality-control strain); 24 h, 35° C.
Description: as §1

[11] = system: Candida albicans ATCC 90029; assay: MIC assay, Candida standard strain (CLSI M27-A3); assay type: cell-based; settings: ATCC90029, 24 h, 35° C.
Description: as §1

[12] = system: Candida albicans ATCC MYA-574; assay: MIC assay, Candida standard strain (CLSI M27-A3); assay type: cell-based; settings: 24 h, 35° C.
Description: as §1

[13] = system: Candida albicans CMCC 98001; assay: MIC assay, Candida standard strain (CLSI M27-A3); assay type: cell-based; settings: CMCC98001, 24 h, 35° C.
Description: as §1

[14] = system: Candida albicans ATCC 10231; assay: MIC assay, Candida standard strain (CLSI M27-A3); assay type: cell-based; settings: ATCC10231, 24 h, 35° C., >50% growth inhibition
Description: as §1

[15] = system: Candida albicans ATCC 64124; assay: MIC assay, Candida standard strain (CLSI M27-A3); assay type: cell-based; settings: ATCC64124, 24 h, 35° C.
Description: as §1

[16] = system: Candida albicans ATCC MYA-2876; assay: MIC assay, Candida standard strain (CLSI M27-A3); assay type: cell-based; settings: 24 h, 35° C.
Description: as §1

C. glabrata ATCC 15126 = assay: MIC assay, Candida standard strain (CLSI M27-A3); assay type: cell-based; settings: Nakaseomyces glabratus, ATCC15126, 24 h, 35° C.
Description: as §1

[17] = system: Cryptococcus neoformans ATCC 208821; assay: MIC assay, yeast-type fungi (CLSI M27-A3); assay type: cell-based; settings: ATCC208821, 24 h, 35° C.
[18] = system: Aspergillus fumigatus ATCC 204305; assay: MEC assay, Aspergillus standard strain (CLSI M38-A2); assay type: cell-based; settings: 21-26 h, 28° C.
Description: After gradient dilution of test compounds, an MIC assay was performed on a Candida standard strain, and an MEC assay was performed on an Aspergillus standard strain.
The colonies on the plate were covered with 0.85% physiological saline (1 mL) or sterile water (polysorbate 20 was added to a final concentration of 0.1%-0.01%). […] The resuspension of spore hyphae was transferred to a sterile test tube, and left to stand for 3-5 min to precipitate heavier particles. The homogeneous suspension on the upper layer was transferred to a new sterile test tube, and the tube was capped closely, and subjected to vortex shaking for 15 s (note: the suspension can produce an aerosol when the cap is reopened). The concentration of the suspension was adjusted to an OD value of 0.09-0.13 at 530 nm by using a spectrophotometer. […] Within 2 h after dilution, 100 μL of the diluted suspension was added to each well in a 96-well plate (the concentration of spores in the final drug sensitive plate should be 0.4×10^4-5×10^4 CFU/mL).
In order to accurately determine MEC value, vortex oscillation should not be allowed before reading the plate.

[19] = Study on pharmacokinetic properties in rats after intravenous injection; settings: SD, rat, in vivo, 5 mg/kg

| SMILES | MIC [1] [µg/mL] | MIC [2] [µg/mL] | MIC [3] [µg/mL] | MIC [4] [µg/mL] | MIC [5] [µg/mL] | MIC [6] [µg/mL] | MIC (C. tropicalis ATCC 750) [µg/mL] | MIC [7] [µg/mL] | MIC [8] [µg/mL] | MIC [9] [µg/mL] | MIC [10] [µg/mL] | MIC (C. krusei ATCC 6258) [µg/mL] | MIC [11] [µg/mL] | MIC [12] [µg/mL] | MIC [13] [µg/mL] | MIC [14] [µg/mL] | MIC [15] [µg/mL] | MIC [16] [µg/mL] | MIC (C. glabrata ATCC 15126) [µg/mL] | MIC [17] [µg/mL] | other results |
| --- | --- | --- | --- | --- | --- | --- | --- | --- | --- | --- | --- | --- | --- | --- | --- | --- | --- | --- | --- | --- | --- |
| CCCCCOc1ccc(C#Cc2ccc3cc(C(=O)N[C@H]4C[C@@H](O)[C@@H](OCC[N+](C)(C)C)NC(=O)[C@@H]5[C@@H](O)[C@@H](C)CN5C(=O)[C@H]([C@@H](C)O)NC(=O)[C@H]([C@H](O)[C@@H](O)c5ccc(O)cc5)NC(=O)[C@@H]5C[C@@H](O)CN5C(=O)[C@H]([C@@H](C)O)NC4=O)ccc3c2)cc1F [Example 10] (X3-[Orn(4R-OH,5R-OCH2CH2NMe3+)]T[Hyp][hTyr(3S-OH,4S-OH)]T[Pro(3S-OH,4S-Me)]; lactam 1-C) | 0.25 | ≤ 0.015 | ≤ 0.015 | ≤ 0.015 | 0.03 | 0.5 | ≤ 0.015 | ≤ 0.015 | 0.03 | ≤ 0.015 | ≤ 0.015 | 0.06 | ≤ 0.015 | ≤ 0.015 | ≤ 0.015 | 0.03 | ≤ 0.015 | ≤ 0.015 | 0.06 | 8 | MEC [18]: ≤0.015 µg/mL |
| CCCCCOc1c(F)cc(C#Cc2ccc3cc(C(=O)N[C@H]4C[C@@H](O)[C@@H](OCC[N+](C)(C)C)NC(=O)[C@@H]5[C@@H](O)[C@@H](C)CN5C(=O)[C@H]([C@@H](C)O)NC(=O)[C@H]([C@H](O)[C@@H](O)c5ccc(O)cc5)NC(=O)[C@@H]5C[C@@H](O)CN5C(=O)[C@H]([C@@H](C)O)NC4=O)ccc3c2)cc1F [Example 14] (X4-[Orn(4R-OH,5R-OCH2CH2NMe3+)]T[Hyp][hTyr(3S-OH,4S-OH)]T[Pro(3S-OH,4S-Me)]; lactam 1-C) | 0.25 | ≤ 0.015 | ≤ 0.015 | ≤ 0.015 | 0.03 | 0.25 | ≤ 0.015 | ≤ 0.015 | 0.03 | ≤ 0.015 | ≤ 0.015 | 0.06 | ≤ 0.015 | ≤ 0.015 | ≤ 0.015 | 0.03 | ≤ 0.015 | ≤ 0.015 | 0.06 | 8 | MEC [18]: ≤0.015 µg/mL |
| CCCCCOc1ccc(-c2ccc(-c3ccc(C(=O)N[C@H]4C[C@@H](O)[C@@H](OCC[N+](C)(C)C)NC(=O)[C@@H]5[C@@H](O)[C@@H](C)CN5C(=O)[C@H]([C@@H](C)O)NC(=O)[C@H]([C@H](O)[C@@H](O)c5ccc(O)cc5)NC(=O)[C@@H]5C[C@@H](O)CN5C(=O)[C@H]([C@@H](C)O)NC4=O)cc3)cc2)cc1 [Rezafungin, rezafungin, reference compound] ({pTerphenylCO(4''-OnC5H11)}-[Orn(4R-OH,5R-OCH2CH2NMe3+)]T[Hyp][hTyr(3S-OH,4S-OH)]T[Pro(3S-OH,4S-Me)]; lactam 1-C) | 0.25 | ≤ 0.015 | ≤ 0.015 | ≤ 0.015 | ≤ 0.015 | 0.5 | ≤ 0.015 | ≤ 0.015 | ≤ 0.015 | ≤ 0.015 | ≤ 0.015 | 0.03 | ≤ 0.015 | ≤ 0.015 | ≤ 0.015 | ≤ 0.015 | ≤ 0.015 | ≤ 0.015 | 0.06 | 16 | MEC [18]: ≤0.015 µg/mL; AUC(0-inf) [19]: 104000 ng·h/mL; AUC(0-t) [19]: 89000 ng·h/mL; Cmax [19]: 4750 ng/mL; MRT last [19]: 20.2 h; Vd [19]: 1.9 L/kg; clearance [19]: 0.8 mL/min/kg; half-life [19]: 27.5 h |
